Experimental data from patent US20240228481A1, “NOVEL SULFONAMIDE SERIES OF QR2 INHIBITORS TO TACKLE OXIDATIVE STRESS AND COGNITIVE DECLINE” (CARMEL HAIFA UNIVERSITY ECONOMIC CORPORATION LTD., priority 2021, published 2024).
Where a name gives a salt, the structure may show the parent alone.

Legend:
5×FAD mice [1] = assay: Novel object recognition in 5×FAD mice; conditions: 5×FAD males
Method: Following the first exploration of the open field arena (described above), mice were returned to the same arena the next day, while the arena now contained two identical objects. Mice were allowed to explore the objects and the arena 3 times for 10 min, with an inter trial interval of 10 min. The following day one of the objects was replaced with a novel object, and the mice were returned to the arena and allowed to explore for 10 min. Mouse movement, exploration and nuzzling was automatically recorded with an Ikegami ICD-49E camera with EthoVision 14 (Noldus Information Technology). Discrimination of the novel object was assessed by calculating (time exploring novel object−time exploring familiar object)/(time exploring novel object+time exploring familiar object).

5×FAD mice [2] = assay: Weight, drinking rate and wellbeing of 5×FAD mice under treatment in drinking water; conditions: for average weight: 25 days, drinking water
5×FAD mice [3] = assay: Immunohistochemistry of CA1 in 5×FAD mice (4-HNE, amyloid β, p-Tau, Iba1); assay type: in vivo, mouse; conditions: 1 month drinking
Method: A week after the completion of all behavioral experiments, 5×FAD mice were anesthetized with isoflurane, and once fully anesthetized, were transcardially perfused with 4% paraformaldehyde (PFA), dilutes in […] phosphate buffered saline (PBS, Sigma-Aldrich). Brains were then briefly removed and placed in chilled, 4% PFA for 48 h, followed by immersion in 30% sucrose in 0.1 M PBS for a further 48 h. Brains were then stored at −80° C., until they were sliced into 40 μm coronal sections using a Leica CM 1950 cryostat. Slices were then washed ×3 in PBS and blocked for 1 h at RT using 10% normal donkey serum (DNS) and 0.2% triton (Sigma-Aldrich) in PBS. Antibodies, including 4-HNE (1:500, AbCam, ab48506), Iba1 (1:2,000, AbCam, ab5076), phospho-tau (1:1,000, Thermo, MN1020) and amyloid R (1:1,000, AbCam, ab201060) diluted in PBS with 10% DNS were incubated at 4° C. overnight. The next day, the slices were washed ×3 times in PBS, and secondary antibodies including donkey anti goat Alexa Fluor 568 (AbCam, ab175704), donkey anti-mouse Cy 5 (Jackson Immuno Research, 715-175-151) and donkey anti-rabbit DyLight 488 (AbCam, ab98488) all diluted 1:500 in PBS with 1% BSA, were applied to the slices at RT for 2 h. Following the incubation, the slices were washed ×3 times in PBS, mounted onto glass slides, were uniformly covered in DAPI containing Vectashield (H-1200) and coverslips were added. Images were then taken using a confocal microscope (Olympus IX83), with identical acquisition parameters across every sample per antibody. Three slices were used per mouse per antibody, with images taken of dorsal CA1 (Bregma: −1.58 mm to −2.30 mm; with each antibody having a slice from anterior, medial and posterior regions of this range) using a ×20 objective, acquiring two 800×800 pixel images over as many Z levels possible per slice (Z-stack of the whole section). Analysis of the images was done blind, using Imaris (Bitplane) software. Surface reconstruction module was used to extract the data as volumes and signal intensities. Marker volume or intensity were normalized to the corresponding brain volume. This was done in order to normalize the marker volumes to variations in Z-stack volumes and/or changes to shape and size that needed to be performed during analysis due to debris, vasculature, corpus callosum elimination, or any other obstructions or changes in shape. The normalized value was averaged for each triplicate.
Following the completion of behavioral experiments, the inventors wished to assess brain pathologies associated with AD present in the 5×FAD mice used. Therefore, 5 days following the completion of the last behavioral experiment, and 1 month following the start of YB-537 consumption, all the mice were sacrificed and coronal sections of their fixed brains were made and used for immunohistochemistry. Since the CA1 region of the hippocampus is affected early on in the pathogenesis of AD, and this brain region is involved in the behavioral paradigms used here, the inventors acquired images of CA1. This was done with an Olympus IX83 confocal microscope using the same settings, antibodies and exposures (all slices and samples were prepared by the same experimenter and all images taken by the same experimenter) in all mice and a separate blind experimenter, unaware of the experimental conditions or details, measured and analyzed the signal detected using Imaris (Bitplane) software (see methods). For each mouse, three coronal sections were used per antibody. In each section, the same region of CA1 was acquired, using the same image frame size and resolution, at all possible depths of the section (Z-stack of the whole section), to allow measurement of the fluorescent antibody marker volume, which was normalized to the brain volume from which it was taken. First, the inventors measured oxidative stress, as indicated by lipid peroxidation product, 4-Hydroxynonenal (4-HNE, antibody: AbCam, ab48506). […]

HCT116 QR2Δ cells = assay: H2DCFDA detection of cellular ROS in HCT116 QR2Δ cells; assay type: cell-based, human; conditions: 20 μM, 3 h
Excerpt: Additional details of the knockout procedure and corresponding figures have been previously published. Disruption of the NQO2 gene at positions 46 and 108 within exon 4 was done using CRISPR/Cas9 dual nickase (plasmid pSpCas9n(BB)-2A-Puro (PX462), Addgene #48141). The target sequence was selected using a CRISPR design tool (http://crispr.mit.edu/), which identified the guide sequences with the least off-targets. Vectors NQ024_46 and NQ024_108 were produced by cloning oligonucleotides corresponding to guide RNA (sgRNA) into PX462 as previously described. The vectors were then transfected into HCT 116 cells (at 70% confluence) using Lipofectamine 2000 (Life Technologies), and 24 h later 0.7 μg/mL puromycin (Alfa Aesar) was added to the media for 72 h. Cells that survived were then collected and serially diluted into 96 well plates, with puromycin supplemented media, to enable selection and expansion of plasmid containing colonies two weeks later.
The cells were harvested and resuspended in 1% clear medium (DMEM—with no phenol red, supplemented with 1% FBS, 1% L-Glutamine and 1% Penicillin-Streptomycin). […] The plate was then incubated in the dark at 37° C. for 3 h, before reading in a Tecan M200 Pro florescence microplate reader, using wavelengths Ex/Em=485 nm/535 nm.

Row | SMILES | novel object discrimination (5×FAD mice [1]) | adverse effects during month-long treatment (5×FAD mice [2]; 5×FAD both sexes, 50 mg/kg in drinking water) | average drinking rate (5×FAD mice [2]; 5×FAD females) | average weight (5×FAD mice [2]; 5×FAD females) | average drinking rate (5×FAD mice [2]; 5×FAD males) | average weight (5×FAD mice [2]; 5×FAD males) | 4-HNE volume normalized to μm^3 of brain, CA1 (5×FAD mice [3]; 5×FAD females) | 4-HNE volume normalized to μm^3 of brain, CA1 (5×FAD mice [3]; 5×FAD males) | Amyloid β volume normalized to μm^3 of brain, CA1 (5×FAD mice [3]; 5×FAD males) | Volume of Iba1 normalized to μm^3 of brain, CA1 (5×FAD mice [3]; 5×FAD males) | Volume of p-Tau normalized to μm^3 of brain, CA1 (5×FAD mice [3]; 5×FAD males) | sum of the intensity of Iba1 positive signal normalized to μm^3 of brain, CA1 (5×FAD mice [3]; 5×FAD males) | Volume of Iba1 normalized to μm^3 of brain, CA1 (5×FAD mice [3]; 5×FAD total population) | sum of the intensity of Iba1 positive signal normalized to μm^3 of brain, CA1 (5×FAD mice [3]; 5×FAD total population) | baseline ROS levels (HCT116 QR2Δ cells)
1 | Cc1ccc(-c2cn3cccc(C)c3n2)cc1S(=O)(=O)N1CCNCC1 [YB-537, 8-methyl-2-(4-methyl-3-(piperazin-1-ylsulfonyl)phenyl)imidazo[1,2-a]pyridine hydrochloride] | 0.06432±0.1285 | no adverse effects were seen | 0.170 ± 0.011 mL/g/day | 22.76 ± 0.192 g | 0.170 ± 0.035 mL/g/day | 32.56 ± 0.279 g | 0.053±0.005 | 0.053±0.005 | 0.038±0.004 | 0.038±0.003 | 0.064±0.006 | 74.09±6.198 | 0.032±0.002 | 63.57±5.251 | –
2 | Cc1cccn2cc(-c3cccc(S(=O)(=O)N4CCC(C)CC4)c3)nc12 [YB-800] | – | – | – | – | – | – | – | – | – | – | – | – | – | – | −0.009±0.049 AU
